In ChEMBL document CHEMBL3045334, “Microwave-assisted synthesis and evaluation of naphthalimides derivatives as free radical scavengers” (Med Chem Res, 2011):

These molecules were tested on Radical scavenging activity (assay: Antioxidant activity assessed as DPPH radical scavenging activity). Settings: not given; call rule not given here.
Type: functional

Row | SMILES | IC50
1 | O=C1OC(=O)c2ccc(Br)c3cccc1c23 | Not Active

Same assay, conditions: read-out: IC50

Row | SMILES | IC50 [µM]
2 | O=C1c2cccc3cccc(c23)C(=O)N1Nc1ccccc1 | 147
3 | O=C1c2cccc3cccc(c23)C(=O)N1Cc1ccccc1 | 143
4 | O=C1c2cccc3cccc(c23)C(=O)N1c1ccccc1 | 130
5 | O=C1OC(=O)c2cc([N+](=O)[O-])c(Br)c3cccc1c23 | 54
6 | Cc1ccc(Nc2c([N+](=O)[O-])cc3c4c(cccc24)C(=O)N(c2ccc(C)cc2)C3=O)cc1 | 42.2
7 | O=C1c2cccc3c(NCc4ccccc4)c([N+](=O)[O-])cc(c23)C(=O)N1Cc1ccccc1 | 43.1
8 | CCCCNc1c([N+](=O)[O-])cc2c3c(cccc13)C(=O)N(CCCC)C2=O | 215
9 | NN1C(=O)c2cccc3cccc(c23)C1=O | 187
10 | CCCCN1C(=O)c2cccc3cccc(c23)C1=O | 183
11 | CCCN1C(=O)c2cccc3cccc(c23)C1=O | 179
12 | O=C1NC(=O)c2cccc3cccc1c23 | 149
13 | O=C1OC(=O)c2cccc3cccc1c23 [1,8-NAPHTHALIC ANHYDRIDE] | 1770
14 | Cc1cc(C(C)(C)C)c(O)c(C(C)(C)C)c1 [BUTYLATED HYDROXYTOLUENE] | 65.8

Second part, the molecule after the results:

Row | IC50 [µM] | SMILES
15 | 320 | CCCCNc1ccc2c3c(cccc13)C(=O)N(CCCC)C2=O
16 | 61.9 | CC(C)c1ccc2c(c1)CCC1[C@@](C)(CN3C(=O)c4cccc5c(NCc6ccccc6)ccc(c45)C3=O)CCC[C@]21C (some centres not stated)
17 | 221 | CC(C)c1ccc2c(c1)CCC1[C@@](C)(CN3C(=O)c4cccc5c(NCCO)ccc(c45)C3=O)CCC[C@]21C (some centres not stated)
18 | 210 | CCCNc1ccc2c3c(cccc13)C(=O)N(C[C@@]1(C)CCC[C@]3(C)c4ccc(C(C)C)cc4CCC13)C2=O (some centres not stated)
19 | 206 | CCCCNc1ccc2c3c(cccc13)C(=O)N(C[C@@]1(C)CCC[C@]3(C)c4ccc(C(C)C)cc4CCC13)C2=O (some centres not stated)
20 | 84.6 | O=C1c2cccc3c(NCc4ccccc4)ccc(c23)C(=O)N1Cc1ccccc1
21 | 351 | CCCNc1ccc2c3c(cccc13)C(=O)N(CCC)C2=O
22 | 231 | O=C1c2cccc3c(NCCO)c([N+](=O)[O-])cc(c23)C(=O)N1CCO
23 | 231 | CCCNc1c([N+](=O)[O-])cc2c3c(cccc13)C(=O)N(CCC)C2=O
24 | 166 | CC(C)c1ccc2c(c1)CCC1[C@@](C)(CN3C(=O)c4cccc5cccc(c45)C3=O)CCC[C@]21C (some centres not stated)
25 | 238 | O=C1c2cccc3c(Br)ccc(c23)C(=O)N1Cc1ccccc1
26 | 208 | CC(C)c1ccc2c(c1)CCC1[C@@](C)(CN3C(=O)c4cccc5c(Br)ccc(c45)C3=O)CCC[C@]21C (some centres not stated)
27 | 155 | O=C1c2cccc3cccc(c23)C(=O)N1CCO
